Marks after values point to notes of the source that are not given here. Residues, ends and D or L forms follow the SMILES beside them.
Experiments:
[1] = tested on: patients with chronic constipation; assay: Trials 1 and 2 pooled; format: in vivo, human; settings: for Straining, Week 1 Mean Change from Baseline / Abdominal discomfort, Week 1 Mean Change from Baseline / Bloating, Week 1 Mean Change from Baseline / Constipation severity, Week 1 Mean Change from Baseline: 5-point scale: 1 = none; for Straining, Week 1 Mean Change from Baseline: 5 = an extreme amount; for Abdominal discomfort, Week 1 Mean Change from Baseline / Bloating, Week 1 Mean Change from Baseline / Constipation severity, Week 1 Mean Change from Baseline: 5 = very severe; for Stool Consistency, Week 1 Mean Change from Baseline: 7-point scale (BSFS)
Description: (§1) Linaclotide Capsules from Example 4 were administered in multicenter, randomized, double-blind, placebo-controlled trials.
(§2) Trial 1 was conducted in 630 patients meeting modified Rome II criteria for chronic constipation. The trial included a two-week pretreatment baseline period and a 12-week treatment period. A diagram of the study design for Trial 2 is given in FIG. 1, which is substantially similar to Trial 1 except for the addition of a Randomized Withdrawal period in Trial 2 as described below.
Trial 2 was conducted in 642 patients and was identical to Trial 1 except that Trial 2 also included a four-week Randomized Withdrawal Period, defined below. During the two-week pretreatment (baseline) period, 68 percent of patients in Trial 2 had no CSBMs.

[2] = tested on: CC; assay: Phase 2b studies for CC, four-week treatment; format: in vivo; settings: throughout the four-week treatment period
Excerpt: Linaclotide is a peptide GC-C agonist that is orally administered and currently in clinical trials for treatment of irritable bowel syndrome with constipation (IBS-c) and CC.

[3] = tested on: patients meeting modified Rome II criteria for chronic constipation; assay: Chronic Constipation Trial 1, 12-week treatment period; format: in vivo, human; settings: for Straining, Week 1 Mean Change from Baseline / Abdominal discomfort, Week 1 Mean Change from Baseline / Bloating, Week 1 Mean Change from Baseline / Constipation severity, Week 1 Mean Change from Baseline: 5-point scale: 1 = none; for Straining, Week 1 Mean Change from Baseline: 5 = an extreme amount; for Abdominal discomfort, Week 1 Mean Change from Baseline / Bloating, Week 1 Mean Change from Baseline / Constipation severity, Week 1 Mean Change from Baseline: 5 = very severe; for Stool Consistency, Week 1 Mean Change from Baseline: 7-point scale (BSFS)
Description: as §1, §2
The Pretreatment Period is defined as the 14 to 21 calendar days immediately before starting the trial during which where patients provided information related to their daily bowel habits, daily assessment of the symptom severity, constipation severity, and use of other medicines, laxatives, suppositories, and/or enemas. Patients who satisfy the necessary criteria were entered into the Treatment Period. During the two-week pretreatment period, 72 percent of patients in Trial 1 had no CSBMs. A CSBM is an bowel movement that occurs in the absence of laxative, enema, or suppository usage within the preceding 24 hours that is accompanied by the patient self-reporting a feeling of complete emptying of the bowel.
The Treatment Period began with randomization and lasted for 12 weeks. Patients were randomized to treatment with 133 μg linaclotide, 266 μg linaclotide, or placebo (1:1:1), taken once daily in the morning. Patients continued to provide their daily assessments such as their daily bowel habit assessments and daily patient symptom severity assessments.

SMILES: C[C@@H]1NC(=O)[C@@H]2CCCN2C(=O)[C@H](CC(N)=O)NC(=O)[C@@H]2CSSC[C@H](N)C(=O)N[C@H]3CSSC[C@H](NC1=O)C(=O)N[C@@H]([C@@H](C)O)C(=O)NCC(=O)N[C@H](C(=O)N[C@@H](Cc1ccc(O)cc1)C(=O)O)CSSC[C@H](NC(=O)[C@H](Cc1ccc(O)cc1)NC(=O)[C@H](CCC(=O)O)NC3=O)C(=O)N2 [Linaclotide, Cys1 Cys2 Glu3 Tyr4 Cys5 Cys6 Asn7 Pro8 Ala9 Cys10 Thr11 Gly12 Cys13 Tyr14] (HELM PEPTIDE1{C.C.E.Y.C.C.N.P.A.C.T.G.C.Y}$PEPTIDE1,PEPTIDE1,1:R3-6:R3|PEPTIDE1,PEPTIDE1,2:R3-10:R3|PEPTIDE1,PEPTIDE1,5:R3-13:R3$$$V2.0)
- CSBM rate, Week 1 Mean Change from Baseline ([1]; 133 μg, Pooled (n = 430)): 2.02**
- SBM rate, Week 1 Mean Change from Baseline ([1]; 133 μg, Pooled (n = 430)): 3.96***
- Straining, Week 1 Mean Change from Baseline ([1]; 133 μg, Pooled (n = 430)): −1.02***
- Abdominal discomfort, Week 1 Mean Change from Baseline ([1]; 133 μg, Pooled (n = 430)): −0.26***
- Bloating, Week 1 Mean Change from Baseline ([1]; 133 μg, Pooled (n = 430)): −0.31***
- Constipation severity, Week 1 Mean Change from Baseline ([1]; 133 μg, Pooled (n = 430)): −0.82***
- Stool Consistency, Week 1 Mean Change from Baseline ([1]; 133 μg, Pooled (n = 430)): 1.78***
- CSBM rate, Week 1 Mean Change from Baseline ([1]; 266 μg, Pooled (n = 418)): 2.42**
- SBM rate, Week 1 Mean Change from Baseline ([1]; 266 μg, Pooled (n = 418)): 4.01***
- Straining, Week 1 Mean Change from Baseline ([1]; 266 μg, Pooled (n = 418)): −1.14***
- Abdominal discomfort, Week 1 Mean Change from Baseline ([1]; 266 μg, Pooled (n = 418)): −0.26***
- Bloating, Week 1 Mean Change from Baseline ([1]; 266 μg, Pooled (n = 418)): −0.31***
- Constipation severity, Week 1 Mean Change from Baseline ([1]; 266 μg, Pooled (n = 418)): −0.85***
- Stool Consistency, Week 1 Mean Change from Baseline ([1]; 266 μg, Pooled (n = 418)): 1.87***
- Overall rates of discontinuation due to adverse events ([1]; both trial 1 and 2): 7.4%
- most common adverse events ([1]; both trial 1 and 2, linaclotide-treated patients): diarrhea, flatulence, and abdominal pain
- effect on constipation, abdominal discomfort, and bloating [2]: reduced constipation, abdominal discomfort, and bloating
- CSBM rate, Week 1 Mean Change from Baseline ([3]; 133 μg, Trial 1 (n = 213)): 1.94***
- SBM rate, Week 1 Mean Change from Baseline ([3]; 133 μg, Trial 1 (n = 213)): 4.09***
- Straining, Week 1 Mean Change from Baseline ([3]; 133 μg, Trial 1 (n = 213)): −1.04***
- Abdominal discomfort, Week 1 Mean Change from Baseline ([3]; 133 μg, Trial 1 (n = 213)): −0.27**
- Bloating, Week 1 Mean Change from Baseline ([3]; 133 μg, Trial 1 (n = 213)): −0.31*
- Constipation severity, Week 1 Mean Change from Baseline ([3]; 133 μg, Trial 1 (n = 213)): −0.78***
- Stool Consistency, Week 1 Mean Change from Baseline ([3]; 133 μg, Trial 1 (n = 213)): 1.79***
- CSBM rate, Week 1 Mean Change from Baseline ([3]; 266 μg, Trial 1 (n = 202)): 2.63***
- SBM rate, Week 1 Mean Change from Baseline ([3]; 266 μg, Trial 1 (n = 202)): 4.09***
- Straining, Week 1 Mean Change from Baseline ([3]; 266 μg, Trial 1 (n = 202)): −1.10***
- Abdominal discomfort, Week 1 Mean Change from Baseline ([3]; 266 μg, Trial 1 (n = 202)): −0.28***
- Bloating, Week 1 Mean Change from Baseline ([3]; 266 μg, Trial 1 (n = 202)): −0.36***
- Constipation severity, Week 1 Mean Change from Baseline ([3]; 266 μg, Trial 1 (n = 202)): −0.81***
- Stool Consistency, Week 1 Mean Change from Baseline ([3]; 266 μg, Trial 1 (n = 202)): 1.96***
- 12-week CSBM overall responder rate ([3]; Trial 1, 133 μg): 16.0%
- increase in average weekly CSBMs from baseline ([3]; Trial 1, 133 μg): 2.0
- increase in average weekly SBMs from baseline ([3]; Trial 1, 133 μg): 3.4
- numerical increase of 12-week CSBM overall responder rate as compared to placebo ([3]; Trial 1, 133 μg): 2.6 fold
- patients reporting at least one CSBM within 24 hours of treatment ([3]; Trial 1, 133 μg): 28.2%
- patients reporting at least one SBM within 24 hours of treatment ([3]; Trial 1, 133 μg): 64.3%
- patients with increase of ≧1 from baseline in weekly CSBMs in at least nine out of 12 weeks ([3]; Trial 1, 133 μg): 31.0%
- patients with increase of ≧1 from baseline in weekly CSBMs in at least six out of 12 weeks ([3]; Trial 1, 133 μg): 47.4%
- patients with ≧3 weekly CSBMs in at least nine out of 12 weeks ([3]; Trial 1, 133 μg): 16.0%
- 12-week CSBM overall responder rate ([3]; Trial 1, 266 μg): 21.3%
- increase in average weekly CSBMs from baseline ([3]; Trial 1, 266 μg): 2.7
- increase in average weekly SBMs from baseline ([3]; Trial 1, 266 μg): 3.7
- numerical increase of 12-week CSBM overall responder rate as compared to placebo ([3]; Trial 1, 266 μg): 3.5 fold
- patients reporting at least one CSBM within 24 hours of treatment ([3]; Trial 1, 266 μg): 29.7%
- patients reporting at least one SBM within 24 hours of treatment ([3]; Trial 1, 266 μg): 60.4%
- patients with increase of ≧1 from baseline in weekly CSBMs in at least nine out of 12 weeks ([3]; Trial 1, 266 μg): 40.1%
- patients with increase of ≧1 from baseline in weekly CSBMs in at least six out of 12 weeks ([3]; Trial 1, 266 μg): 51.0%
- patients with ≧3 weekly CSBMs in at least nine out of 12 weeks ([3]; Trial 1, 266 μg): 21.8%

Source: patent publication US20140349948A1, “Treatment of Chronic Constipation” (Forest Laboratories Holdings Limited, priority 2009, published 2014)
